Results: US20220133833A1, “USE OF GRAPE AND/OR SOY SUPPLEMENTS AGAINST COVID-19 AND 92 OTHER VIRUSES AND BACTERIA INCLUDING OTHER UNKNOWN VIRUSES AND BACTERIA” (priority 2020, published 2022)
Read-outs that look alike come from different tables or passages of the source.

System: H1N1 virus
[1] = one-week preventive treatment, 0.2 ml/0.4 ml/mouse iv/ip QD, till the end of the study

## APOA-1 [RAAS-2]
mice, H1N1
  prevention of the Bird Flu Epidemiology in Mice: 100%
[1]
  protection from body weight loss: totally protected
  protection from death: totally protected
Preventive treatment
  protection of body weight loss compared with oseltamivir treatment: even better than that by oseltamivir treatment
Therapeutic group (G2), some of the mice, day 5 post H1N1 challenge and afterward
  adverse finding / tolerance: haematuria
Therapeutic treatment, 0.2 ml/0.4 ml iv/ip QD, all 5 mice, days 2 to 5 post H1N1 infection
  protection from body weight loss: partial
Therapeutic treatment, 0.2 ml/0.4 ml iv/ip QD, group of 5 mice
  mice protected from death: one mouse out of 5 mice
